Laboratory results from patent publication EP0072987A1 (priority 1981, dated 1983).
Where “and” joins values, the source holds several entries; their conditions need not be identical. Equal values may be shown once.

Tested on: Tumorart PS 2684
Parameters: species or system Mäusen
Conditions: in vivo

Row | Compound | T/C-Wert
1 | CN(CC1CO1)P1(=O)OCCCN1CC(Cl)CO (centres unmarked) [Beispiel 2, 2H-1,3,2-Oxazaphosphorin, 2-(glycidyl-methyl)amino-2-oxid-3-(3-hydroxy-2-chloro)-propyl- . tetrahvdro -] | 158 and 134
2 | O=P1(N(CC2CO2)CC2CO2)OCCCN1CC1CO1 (centres unmarked) [Beispiel 1, 2H-1,3,2-Oxazaphosphorin, 2-(bis-glycidyl)aminotetrahydro-2-oxid-3-glycidyl-] | 158 and 132
